Data taken from the supplement of paper PMC10307832.

Key:
Test in all cases: relative viability (nuclei count vs DMSO), 5 days (fraction); higher = more cells survive
Nelarabine + Luminespib = compound: COc1nc(N)nc2c1ncn2[C@@H]1O[C@H](CO)[C@@H](O)[C@@H]1O [Nelarabine] + CCNC(=O)c1noc(-c2cc(C(C)C)c(O)cc2O)c1-c1ccc(CN2CCOCC2)cc1 [Luminespib] (partner 0.01 µM)
Method in brief: (§1)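 Dosing by pin tool came one day after lung cancer cell lines were seeded in 1536-well plates, using either one drug or a fixed anchor-drug dose plus five library-drug doses (not always all listed) in √10 steps. After 5 days, nuclei were counted on 4× images. Relative viability is treated-well nuclei count divided by vehicle-well nuclei count, and values are medians of duplicate plates.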

Nelarabine + Alpelisib = compound: COc1nc(N)nc2c1ncn2[C@@H]1O[C@H](CO)[C@@H](O)[C@@H]1O [Nelarabine] + Cc1nc(NC(=O)N2CCC[C@H]2C(N)=O)sc1-c1ccnc(C(C)(C)C(F)(F)F)c1 [Alpelisib] (partner 2 µM)
Method in brief: as §1

Adavosertib + Navitoclax = compound: C=CCn1c(=O)c2cnc(Nc3ccc(N4CCN(C)CC4)cc3)nc2n1-c1cccc(C(C)(C)O)n1 [Adavosertib] + CC1(C)CCC(c2ccc(Cl)cc2)=C(CN2CCN(c3ccc(C(=O)NS(=O)(=O)c4ccc(N[C@H](CCN5CCOCC5)CSc5ccccc5)c(S(=O)(=O)C(F)(F)F)c4)cc3)CC2)C1 [Navitoclax] (partner 0.5 µM)
Method in brief: as §1

Adavosertib + Phenformin = compound: C=CCn1c(=O)c2cnc(Nc3ccc(N4CCN(C)CC4)cc3)nc2n1-c1cccc(C(C)(C)O)n1 [Adavosertib] + N=C(N)NC(=N)NCCc1ccccc1 [Phenformin] (partner 250 µM)
Method in brief: as §1

Cell Line	relative viability (Nelarabine + Luminespib; first compound 0.01 µM)	relative viability (Nelarabine + Luminespib; first compound 0.03162 µM)	relative viability (Nelarabine + Luminespib; first compound 0.1 µM)	relative viability (Nelarabine + Luminespib; first compound 0.3162 µM)	relative viability (Nelarabine + Luminespib; first compound 1 µM)	relative viability (Nelarabine + Alpelisib; first compound 0.01 µM)	relative viability (Nelarabine + Alpelisib; first compound 0.03162 µM)	relative viability (Nelarabine + Alpelisib; first compound 0.1 µM)	relative viability (Nelarabine + Alpelisib; first compound 0.3162 µM)	relative viability (Nelarabine + Alpelisib; first compound 1 µM)	relative viability (Adavosertib + Navitoclax; first compound 0.01 µM)	relative viability (Adavosertib + Navitoclax; first compound 0.03162 µM)	relative viability (Adavosertib + Navitoclax; first compound 0.1 µM)	relative viability (Adavosertib + Navitoclax; first compound 0.3162 µM)	relative viability (Adavosertib + Phenformin; first compound 0.01 µM)	relative viability (Adavosertib + Phenformin; first compound 0.03162 µM)	relative viability (Adavosertib + Phenformin; first compound 0.1 µM)	relative viability (Adavosertib + Phenformin; first compound 0.3162 µM)
NCI-H647	0.177	0.111	0.193	0.128	0.136	1.2	0.705	1.12	1.56	1.19	1.15	1.17	1.12	0.985	0.495	0.533	0.354	0.249
NCI-H2347	0.463	0.743	0.621	0.48	0.478	1.01	1.13	1.14	1.04	1.14	0.811	0.804	0.954	0.791	0.306	0.496	0.5	0.411
NCI-H1395	0.666	0.691	0.773	0.707	0.987	1.15	0.987	1	1.34	0.99	1.15	1.17	1.25	0.986	0.435	0.429	0.421	0.471
NCI-H522	–	0.993	1.25	0.96	1.29	–	–	–	–	–	–	–	–	–	0.679	0.57	0.691	0.676
NCI-H2087	0.193	0.125	0.155	0.18	0.196	1.19	1.13	0.986	0.969	1.07	1.09	1.14	1.09	0.937	0.456	0.442	0.525	0.461
EPLC-272H	0.137	0.483	0.446	0.259	0.301	0.986	0.932	1.03	0.926	0.808	1.09	0.987	0.983	0.861	0.314	0.306	0.353	0.245
NCI-H838	0.316	0.321	0.31	0.257	0.221	1.29	0.769	1.07	1.11	1.02	1.16	1.11	1.18	1.13	0.57	0.502	0.525	0.655
NCI-H661	1.04	1.09	0.928	0.914	0.911	0.497	0.834	0.701	0.772	0.455	–	–	–	–	0.28	0.264	0.276	0.252
NCI-H2170	1.17	1.21	0.602	0.746	0.465	0.944	0.748	0.81	0.882	0.937	0.605	0.57	0.482	0.313	0.444	0.404	0.407	0.441
NCI-H1703	–	–	–	–	–	0.395	0.278	0.385	0.366	0.409	1.27	0.877	1.11	0.157	–	–	–	–
NCI-H1651	1.01	0.953	0.822	0.985	0.856	1.15	0.963	1.12	1.02	0.855	0.993	1.13	1.17	0.748	0.3	0.354	0.31	0.237
LU99A	0.239	0.235	0.339	0.282	0.279	0.517	0.415	0.519	0.476	0.54	0.895	0.733	0.901	0.652	0.963	0.808	0.982	0.826
LK-2	0.161	–	0.178	0.146	0.173	1.58	–	1.13	1.12	1.04	0.98	0.882	0.989	0.808	0.75	0.435	0.364	0.397
NCI-H1666	0.991	0.962	0.898	1	1	0.99	0.917	0.957	1.05	0.883	0.927	0.83	0.935	0.673	0.549	0.562	0.636	0.594
H3255	–	0.889	1	0.853	0.737	0.859	0.897	0.644	0.687	0.75	0.374	0.473	0.508	0.447	0.351	0.369	0.363	0.336
SK-MES-1	0.954	0.622	0.748	0.847	0.797	1.01	1	0.937	0.964	0.948	1.17	1.25	1.31	1.11	0.66	0.704	0.635	0.208
NCI-H2023	1.07	0.596	0.905	0.834	0.7	0.634	0.769	0.559	0.594	0.55	1.03	0.959	0.912	0.6	0.437	0.389	0.358	0.193
NCI-H1650	0.195	0.181	0.225	0.234	0.204	–	–	–	–	–	1.15	1.26	1.25	1.1	0.361	0.392	0.445	0.205
LCLC-97TM1	0.912	0.688	0.856	0.713	0.78	0.277	0.211	0.216	0.212	0.26	–	0.372	0.473	0.257	0.428	0.397	0.488	0.417
